The values that follow come from patent US9688710B2, “Inhibitors of sodium glucose cotransporter 1” (LEXICON PHARMACEUTICALS, INC., priority 2012, dated 2017).

The target in test [1] is Human sodium/glucose co-transporter type 1 (SGLT1) (Homo sapiens (Human), UniProt P13866). Kind of test: In vitro human SGLT1 inhibition assay (14C-AMG uptake). The format is cell-based. Details: key to SGLT1 (human SGLT1 IC50): ***: a value less than 0.01 μM; **: a value less than 0.1 μM; *: a value less than 1 μM; —: a value not measured or exceeding μM. The conditions noted are these: HEK293 cells expressing human HA-SGLT1, 14C-AMG uptake. The protocol: Human sodium/glucose co-transporter type 1 (SGLT1; accession number NP_000334; GI: 4507031) was cloned into pIRESpuro2 vector for mammalian expression (construct: HA-SGLT1-pIRESpuro2).
HEK293 cells were transfected with the human HA-SGLT1-pIRESpuro2 vector and the bulk stable cell line was selected in presence of 0.5 μg/mL of puromycin. Human HA-SGLT1 cells were maintained in DMEM media containing 10% FBS, 1% GPS and 0.5 μg/mL of puromycin.
The HEK293 cells expressing the human HA-SGLT1 were seeded in 384 well plates (30,000 cells/well) in DMEM media containing 10% FBS, 1% GPS and 0.5 μg/mL of puromycin, then incubated overnight at 37 C, 5% CO2. Cells were then washed with uptake buffer (140 mM NaCl, 2 mM KCl, 1 mM CaCl2, 1 mM MgCl2, 10 mM HEPES, 5 mM Tris, 1 mg/mL bovine serum albumin (BSA), pH 7.3). Twenty microliters of uptake buffer with or without testing compounds were added to the cells. Then, 20 microliters of uptake buffer containing ^14C-AMG (100 nCi) were also added to cells. The cell plates were incubated at 37° C., 5% CO2 for 1-2 hours. After washing the cells with uptake buffer, scintillation fluid was added (40 microliters/well) and ^14C-AMG uptake was measured by counting radioactivity using a scintillation coulter (TopCoulter NXT; Packard Instruments).

In test [2] the target is Human sodium/glucose co-transporter type 2 (SGLT2) (Homo sapiens (Human), UniProt P31639). Put plainly: In vitro human SGLT2 inhibition assay (14C-AMG uptake). The class given is cell-based. The conditions noted are these: HEK293 cells expressing human HA-SGLT2, 14C-AMG uptake. As for the experimental part:
Human sodium/glucose co-transporter type 2 (SGLT2; accession number P31639; GI:400337) was cloned into pIRESpuro2 vector for mammalian expression (construct: HA-SGLT2-pIRESpuro2).
HEK293 cells were transfected with the human HA-SGLT2-pIRESpuro2 vector and the bulk stable cell line was selected in presence of 0.5 μg/mL of puromycin. Human HA-SGLT2 cells were maintained in DMEM media containing 10% FBS, 1% GPS and 0.5 μg/mL of puromycin.
The HEK293 cells expressing the human HA-SGLT2 were seeded in 384 well plates (30,000 cells/well) in DMEM media containing 10% FBS, 1% GPS and 0.5 μg/mL of puromycin, then incubated overnight at 37 C, 5% CO2. Cells were then washed with uptake buffer (140 mM NaCl, 2 mM KCl, 1 mM CaCl2, 1 mM MgCl2, 10 mM HEPES, 5 mM Tris, 1 mg/mL bovine serum albumin (BSA), pH 7.3). Twenty microliters of uptake buffer with or without testing compounds were added to the cells. Then, 20 microliters of uptake buffer containing ^14C-AMG (100 nCi) were added to the cells. The cell plates were incubated at 37° C., 5% CO2 for 1-2 hours. After washing the cells with uptake buffer, scintillation fluid was added (40 microliters/well) and ^14C-AMG uptake was measured by counting radioactivity using a scintillation coulter (TopCoulter NXT; Packard Instruments).

Sequence of Human sodium/glucose co-transporter type 1 (SGLT1) (P13866 whole entry): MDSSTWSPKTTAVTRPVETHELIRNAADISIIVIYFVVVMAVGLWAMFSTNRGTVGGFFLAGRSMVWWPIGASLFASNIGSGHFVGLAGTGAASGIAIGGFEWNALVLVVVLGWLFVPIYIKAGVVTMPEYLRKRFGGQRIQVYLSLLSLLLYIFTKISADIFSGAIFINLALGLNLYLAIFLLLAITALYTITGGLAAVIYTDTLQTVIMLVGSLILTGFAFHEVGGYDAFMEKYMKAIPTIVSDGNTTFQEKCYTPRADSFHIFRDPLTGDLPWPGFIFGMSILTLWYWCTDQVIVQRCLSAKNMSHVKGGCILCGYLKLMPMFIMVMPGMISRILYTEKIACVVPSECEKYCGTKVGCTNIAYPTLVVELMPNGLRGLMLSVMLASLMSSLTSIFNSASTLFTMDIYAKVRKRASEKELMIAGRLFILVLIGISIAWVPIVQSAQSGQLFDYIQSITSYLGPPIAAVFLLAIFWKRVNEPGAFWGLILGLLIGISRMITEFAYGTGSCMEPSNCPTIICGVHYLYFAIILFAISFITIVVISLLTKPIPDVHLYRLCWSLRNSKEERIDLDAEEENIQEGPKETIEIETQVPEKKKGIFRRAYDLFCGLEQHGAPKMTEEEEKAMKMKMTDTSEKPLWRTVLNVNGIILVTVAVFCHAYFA
Sequence of Human sodium/glucose co-transporter type 2 (SGLT2) (P31639 whole entry): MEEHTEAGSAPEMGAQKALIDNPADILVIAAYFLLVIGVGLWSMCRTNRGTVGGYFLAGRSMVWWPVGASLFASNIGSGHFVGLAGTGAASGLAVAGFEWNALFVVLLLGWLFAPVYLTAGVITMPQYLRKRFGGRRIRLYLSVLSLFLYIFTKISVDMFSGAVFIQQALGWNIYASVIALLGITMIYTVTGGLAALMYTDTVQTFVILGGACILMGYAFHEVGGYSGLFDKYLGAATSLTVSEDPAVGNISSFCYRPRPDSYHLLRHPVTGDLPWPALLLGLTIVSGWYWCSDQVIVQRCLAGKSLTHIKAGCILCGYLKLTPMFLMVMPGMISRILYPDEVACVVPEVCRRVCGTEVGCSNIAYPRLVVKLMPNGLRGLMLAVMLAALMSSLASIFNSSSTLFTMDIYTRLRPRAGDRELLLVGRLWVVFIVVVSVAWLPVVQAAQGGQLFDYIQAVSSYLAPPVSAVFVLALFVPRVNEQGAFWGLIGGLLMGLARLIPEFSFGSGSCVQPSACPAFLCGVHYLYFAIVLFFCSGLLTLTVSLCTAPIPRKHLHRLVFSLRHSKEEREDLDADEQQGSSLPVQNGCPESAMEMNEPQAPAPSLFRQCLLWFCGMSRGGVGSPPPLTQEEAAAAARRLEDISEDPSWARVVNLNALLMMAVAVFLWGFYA

For the compound `CS[C@H]1O[C@@H](c2ccc(C)c(Cc3ccc(CCCC(=O)NC(C)(C)C(=O)N4CCC(NC(=O)OC(C)(C)C)CC4)cc3)c2)[C@H](O)[C@@H](O)[C@@H]1O` [tert-butyl (1-(2-methyl-2-(4-(4-(2-methyl-5-((2S,3R,4R,5S,6R)-3,4,5-trihydroxy-6-(methylthio)tetrahydro-2H-pyran-2-yl)benzyl)phenyl)butanamido)propanoyl)piperidin-4-yl)carbamate], the 50% inhibitory concentration (IC50) in test [1] and in test [2] was < 10 nM each time.
As for `CS[C@H]1O[C@@H](c2ccc(C)c(Cc3ccc(CCCCCCC(=O)NC(C)(C)C(N)=O)cc3)c2)[C@H](O)[C@@H](O)[C@@H]1O` [N-(1-amino-2-methyl-1-oxopropan-2-yl)-7-(4-(2-methyl-5-((2S,3R,4R,5S,6R)-3,4,5-trihydroxy-6-(methylthio)tetrahydro-2H-pyran-2-yl)benzyl)phenyl)heptanamide], the values for the half-inhibitory concentration (IC50) in test [1] and in test [2] were < 100 nM and < 10 nM, respectively.
On the same counts, the results for `CS[C@H]1O[C@@H](c2ccc(C)c(Cc3ccc(CCCC(=O)NCC(C)(C)C(=O)O)cc3)c2)[C@H](O)[C@@H](O)[C@@H]1O` [2,2-dimethyl-3-(4-(4-(2-methyl-5-((2S,3R,4R,5S,6R)-3,4,5-trihydroxy-6-(methylthio)tetrahydro-2H-pyran-2-yl)benzyl)phenyl)butanamido)propanoic acid] are < 100 nM and < 10 nM.
In the same order, the values of `CS[C@H]1O[C@@H](c2ccc(C)c(Cc3ccc(CCCCNCC(O)CO)cc3)c2)[C@H](O)[C@@H](O)[C@@H]1O` (stereo partly drawn) [(2S,3R,4R,5S,6R)-2-(3-(4-(4-((2,3-dihydroxypropyl)amino)butyl)benzyl)-4-methylphenyl)-6-(methylthio)tetrahydro-2H-pyran-3,4,5-triol] are < 100 nM and < 10 nM.
On the same counts, the results for `CS[C@H]1O[C@@H](c2ccc(C)c(Cc3ccc(CCCCNC(=O)C(C)(C)CO)cc3)c2)[C@H](O)[C@@H](O)[C@@H]1O` [3-hydroxy-2,2-dimethyl-N-(4-(4-(2-methyl-5-((2S,3R,4R,5S,6R)-3,4,5-trihydroxy-6-(methylthio)tetrahydro-2H-pyran-2-yl)benzyl)phenyl)butyl)propanamide] are < 10 nM and < 10 nM.
For `CS[C@H]1O[C@@H](c2ccc(Cl)c(Cc3ccc(OCCCC(=O)NC(C)(C)CO)cc3)c2)[C@H](O)[C@@H](O)[C@@H]1O` [4-(4-(2-chloro-5-((2S,3R,4R,5S,6R)-3,4,5-trihydroxy-6-(methylthio)tetrahydro-2H-pyran-2-yl)benzyl)phenoxy)-N-(1-hydroxy-2-methylpropan-2-yl)butanamide], the IC50 in test [1] and in test [2] was < 10 nM in each case.
As for `CS[C@H]1O[C@@H](c2ccc(C)c(Cc3ccc(OCCCC(=O)NC(CO)(CO)CO)cc3)c2)[C@H](O)[C@@H](O)[C@@H]1O` [N-(1,3-dihydroxy-2-(hydroxymethyl)propan-2-yl)-4-(4-(2-methyl-5-((2S,3R,4R,5S,6R)-3,4,5-trihydroxy-6-(methylthio)tetrahydro-2H-pyran-2-yl)benzyl)phenoxy)butanamide], the concentration for half-maximal inhibition (IC50) in test [1] and in test [2] was < 10 nM throughout.
With `CS[C@H]1O[C@@H](c2ccc(C)c(Cc3ccc(CCCc4nnnn4CC(=O)N4CCN(C)CC4)cc3)c2)[C@H](O)[C@@H](O)[C@@H]1O` [2-(5-(3-(4-(2-methyl-5-((2S,3R,4R,5S,6R)-3,4,5-trihydroxy-6-(methylthio)tetrahydro-2H-pyran-2-yl)benzyl)phenyl)propyl)-1H-tetrazol-1-yl)-1-(4-methylpiperazin-1-yl)ethanone], the half-inhibitory concentration (IC50) in test [1] and in test [2] was < 10 nM throughout.
Turning to `CS[C@H]1O[C@@H](c2ccc(C)c(Cc3ccc(CCCC(=O)NCC(=O)N4CCN(C)CC4)cc3)c2)[C@H](O)[C@@H](O)[C@@H]1O` [4-(4-(2-methyl-5-((2S,3R,4R,5S,6R)-3,4,5-trihydroxy-6-(methylthio)tetrahydro-2H-pyran-2-yl)benzyl)phenyl)-N-(2-(4-methylpiperazin-1-yl)-2-oxoethyl)butanamide], the IC50 in test [1] and in test [2] was < 10 nM in each case.
Regarding `CS[C@H]1O[C@@H](c2ccc(C)c(Cc3ccc(/C=C/CCC(=O)NC(CO)(CO)CO)cc3)c2)[C@H](O)[C@@H](O)[C@@H]1O` [(E)-N-(1,3-dihydroxy-2-(hydroxymethyl)propan-2-yl)-5-(4-(2-methyl-5-((2S,3R,4R,5S,6R)-3,4,5-trihydroxy-6-(methylthio)tetrahydro-2H-pyran-2-yl)benzyl)phenyl)pent-4-enamide], the half-inhibitory concentration (IC50) in test [1] and in test [2] was < 10 nM throughout.
For the compound `CS[C@H]1O[C@@H](c2ccc(C)c(Cc3ccc(OCCCC(=O)NCC(C)(C)C(N)=O)cc3)c2)[C@H](O)[C@@H](O)[C@@H]1O` [N-(3-amino-2,2-dimethyl-3-oxopropyl)-4-(4-(2-methyl-5-((2S,3R,4R,5S,6R)-3,4,5-trihydroxy-6-(methylthio)tetrahydro-2H-pyran-2-yl)benzyl)phenoxy)butanamide], the half-inhibitory concentration (IC50) (in general, the concentration at which inhibition is half-maximal) was < 100 nM in test [1] and < 10 nM in test [2].
In the same order, the values of `CS[C@H]1O[C@@H](c2ccc(Cl)c(Cc3ccc(OCCNC(=O)OC(C)(C)C)cc3)c2)[C@H](O)[C@@H](O)[C@@H]1O` [tert-butyl (2-(4-(2-chloro-5-((2S,3R,4R,5S,6R)-3,4,5-trihydroxy-6-(methylthio)tetrahydro-2H-pyran-2-yl)benzyl)phenoxy)ethyl)carbamate] are < 100 nM and < 10 nM.
In the same order, the values of `CS[C@H]1O[C@@H](c2ccc(C)c(Cc3ccc(OCC(O)CO)cc3)c2)[C@H](O)[C@@H](O)[C@@H]1O` (stereo partly drawn) [(2S,3R,4R,5S,6R)-2-(3-(4-(2,3-dihydroxypropoxy)benzyl)-4-methylphenyl)-6-(methylthio)tetrahydro-2H-pyran-3,4,5-triol] are < 100 nM and < 100 nM.
On the same counts, the results for `CS[C@H]1O[C@@H](c2ccc(C)c(Cc3ccc(CCCCCC(=O)NC(CO)(CO)CO)cc3)c2)[C@H](O)[C@@H](O)[C@@H]1O` [N-(1,3-dihydroxy-2-(hydroxymethyl)propan-2-yl)-6-(4-(2-methyl-5-((2S,3R,4R,5S,6R)-3,4,5-trihydroxy-6-(methylthio)tetrahydro-2H-pyran-2-yl)benzyl)phenyl)hexanamide] are < 100 nM and < 10 nM.
As to `CS[C@H]1O[C@@H](c2ccc(C)c(Cc3ccc(CCCC(=O)NC(C)(C)C(=O)N4CCN(C(=O)OC(C)(C)C)CC4)cc3)c2)[C@H](O)[C@@H](O)[C@@H]1O` [tert-butyl 4-(2-methyl-2-(4-(4-(2-methyl-5-((2S,3R,4R,5S,6R)-3,4,5-trihydroxy-6-(methylthio)tetrahydro-2H-pyran-2-yl)benzyl)phenyl)butanamido)propanoyl)piperazine-1-carboxylate], the IC50 in test [1] and in test [2] was < 10 nM throughout.
On to `CS[C@H]1O[C@@H](c2ccc(C)c(Cc3ccc(CCCc4nnn(CC(=O)N5CCN(C)CC5)n4)cc3)c2)[C@H](O)[C@@H](O)[C@@H]1O` [2-(5-(3-(4-(2-methyl-5-((2S,3R,4R,5S,6R)-3,4,5-trihydroxy-6-(methylthio)tetrahydro-2H-pyran-2-yl)benzyl)phenyl)propyl)-2H-tetrazol-2-yl)-1-(4-methylpiperazin-1-yl)ethanone], for which the IC50 in test [1] and in test [2] was < 10 nM in each case.
Take `CS[C@H]1O[C@@H](c2ccc(C)c(Cc3ccc(OCCCC(=O)O)cc3)c2)[C@H](O)[C@@H](O)[C@@H]1O` [4-(4-(2-methyl-5-((2S,3R,4R,5S,6R)-3,4,5-trihydroxy-6-(methylthio)tetrahydro-2H-pyran-2-yl)benzyl)phenoxy)butanoic acid]: the “SGLT1 (human SGLT1 IC50)” value in test [1] is recorded as “—”. Also, the half-maximal inhibitory concentration (IC50) in test [2] is < 100 nM.
